Among the data in ChEMBL document CHEMBL1133864, “Identification of a novel family of nucleosides that specifically inhibit HIV-1 reverse transcriptase” (Bioorg Med Chem Lett, 2001) are CC50, EC50 and IC50 values, retold here.

As usually defined, the CC50 is the concentration giving 50% cytotoxicity. Read a high CC50 as lower toxicity to the cells. The EC50 is the concentration that produces a half-maximal response. Higher therefore signals lower potency in that assay. The IC50 is the concentration needed to halve the response being measured.

The test system of experiment [1] is CCRF-CEM. As to the kind of experiment: Concentration required to reduce the viability of mock-infected CEM cells by 50%. In kind it is functional. The settings on record: Homo sapiens.
The test system of experiment [2] is Human immunodeficiency virus 2. As to the kind of experiment: Effective concentration required to inhibit HIV-2 induced cytopathicity by 50% in CEM cells. In kind it is functional, organism-based. The settings on record: Human immunodeficiency virus 2, CCRF-CEM. On the technique in general: Protection from cytopathic effect is a common read-out in antiviral testing.

The target of experiment [3] is T1, Human immunodeficiency virus type 1 reverse transcriptase (Human immunodeficiency virus 1, UniProt Q72547). As to the kind of experiment: The compound was evaluated for inhibition of HIV-1 wild types […]-Lys recombinant reverse transcriptase.
Experiment [4] has as its target T1, Human immunodeficiency virus type 1 reverse transcriptase. Kind of experiment: The compound was evaluated for inhibition of HIV-1 mutant […]-Lys recombinant reverse transcriptase.

In turn, `Cc1cn(C2O[C@H](CO)[C@@H](O)[C@H]2O)c(=O)n(CC(=O)O)c1=O` (stereo partly drawn) displayed a CC50 in experiment [1] greater than 250 µM. For the same compound, the EC50 in experiment [2] is greater than 250 µM.
In turn, `Cc1cn([C@@H]2O[C@H](CO[Si](C)(C)C(C)(C)C)[C@@H](O)[C@H]2O[Si](C)(C)C(C)(C)C)c(=O)n(CC(=O)O)c1=O` yielded a CC50 in experiment [1] of 23 µM. This compound gave an EC50 in experiment [2] greater than 10 µM. The values for the IC50 in experiment [3] and in experiment [4] were 138 µM and 158 µM, respectively.
For `Cc1cn([C@@H]2O[C@H](CO[Si](C)(C)C(C)(C)C)[C@@H](O[Si](C)(C)C(C)(C)C)[C@H]2O)c(=O)n(CC(=O)O)c1=O` the same measures were 29.3 µM, greater than 10 µM, 207 µM and 335 µM.
On to `Cc1cn(C2CCC(CO[Si](C)(C)C(C)(C)C)O2)c(=O)n(CC(=O)O)c1=O` (stereo not drawn), for which the CC50 in experiment [1] is greater than 250 µM. In experiment [2], this compound yielded an EC50 greater than 250 µM.
On to `Cc1cn([C@@H]2O[C@H](CO)[C@@H](O)[C@H]2O[Si](C)(C)C(C)(C)C)c(=O)n(CC(=O)O)c1=O`, for which the CC50 in experiment [1] is greater than 250 µM. In experiment [2], the EC50 is greater than 250 µM.
For `Cc1cn(C2CCC(CO[Si](C)(C)C(C)(C)C)O2)c(=O)n(CC(=O)OCc2ccccc2)c1=O` (stereo not drawn), in experiment [1], the CC50 is greater than 250 µM. The EC50 in experiment [2] is greater than 50 µM.
Take `Cc1cn([C@H]2C[C@H](O[Si](C)(C)C(C)(C)C)[C@@H](CO[Si](C)(C)C(C)(C)C)O2)c(=O)n(CC(=O)O)c1=O`: the cytotoxic concentration (CC50) in experiment [1] stood at 20.3 µM. For the same compound, the concentration giving a half-maximal response (EC50) in experiment [2] is greater than 10 µM.
As to `Cc1cn([C@@H]2O[C@H](CO[Si](C)(C)C(C)(C)C)C3(OS(=O)(=O)C=C3N)[C@H]2O[Si](C)(C)C(C)(C)C)c(=O)[nH]c1=O` (stereo partly drawn), the midpoint of cytotoxicity in experiment [1], the CC50, lay at 14 µM. Also, the EC50 in experiment [2] is greater than 20 µM. The IC50 in experiment [3] was 3.6 µM; in experiment [4], greater than 500 µM.
Compound `Cc1cn([C@@H]2O[C@H](CO[Si](C)(C)C(C)(C)C)[C@@H](O[Si](C)(C)C(C)(C)C)[C@H]2O)c(=O)n(CC(=O)OCc2ccccc2)c1=O` yielded a CC50 in experiment [1] of 57.1 µM. Also, in experiment [2], the EC50 was greater than 10 µM.
For `Cc1cn(C2O[C@H](CO[Si](C)(C)C(C)(C)C)[C@@H](O)[C@H]2O)c(=O)n(CC(=O)OCc2ccccc2)c1=O` (stereo partly drawn) the same measures were 30 µM and greater than 10 µM.
Take `Cc1cn([C@@H]2O[C@H](CO[Si](C)(C)C(C)(C)C)[C@@H](O)[C@H]2O[Si](C)(C)C(C)(C)C)c(=O)n(CC(=O)OCc2ccccc2)c1=O`: in experiment [1], it took 25.7 µM to reach half-maximal cytotoxicity (CC50). This compound also had an EC50 in experiment [2] greater than 10 µM.
The corresponding values for `Cc1cn([C@H]2C[C@H](O[Si](C)(C)C(C)(C)C)[C@@H](CO[Si](C)(C)C(C)(C)C)O2)c(=O)n(CC(=O)OCc2ccccc2)c1=O` are 56.4 µM and greater than 10 µM.
As for `Cc1cn(C2OC(CO[Si](C)(C)C(C)(C)C)CC2O[Si](C)(C)C(C)(C)C)c(=O)n(CC(=O)O)c1=O` (stereo not drawn), it took 20.7 µM to reach half-maximal cytotoxicity in experiment [1] (CC50). For the same compound, the EC50 in experiment [2] was greater than 10 µM. The figures for the IC50 in experiment [3] and in experiment [4] were 33.8 µM and 47.4 µM, respectively.
`Cc1cn([C@H]2C[C@H](N=[N+]=[N-])[C@@H](CO)O2)c(=O)[nH]c1=O` [ZIDOVUDINE] registered a CC50 in experiment [1] of 6 µM. The EC50 in experiment [2] was 0.004 µM.
For `Cc1cn([C@@H]2O[C@H](CO[Si](C)(C)C(C)(C)C)[C@@H](O[Si](C)(C)C(C)(C)C)[C@H]2O[Si](C)(C)C(C)(C)C)c(=O)n(CC(=O)O)c1=O` the same measures were greater than 125 µM and greater than 125 µM.
The corresponding values for `Cc1cn(C2O[C@H](CO[Si](C)(C)C(C)(C)C)[C@@H](O)[C@H]2O)c(=O)n(CC(=O)O)c1=O` (stereo partly drawn) are greater than 250 µM and greater than 250 µM.
In experiment [1], `Cc1cn(C2O[C@H](CO)[C@@H](O)[C@H]2O)c(=O)n(CC(=O)OCc2ccccc2)c1=O` (stereo partly drawn) registered a CC50 greater than 250 µM. The compound also gave an EC50 in experiment [2] greater than 250 µM.
With `Cc1cn([C@@H]2O[C@H](CO)[C@@H](O)[C@H]2O[Si](C)(C)C(C)(C)C)c(=O)n(CC(=O)OCc2ccccc2)c1=O`, the CC50 in experiment [1] was found to be 26 µM. In addition, the EC50 in experiment [2] is greater than 10 µM.
The corresponding values for `Cc1cn(C2OC(CO[Si](C)(C)C(C)(C)C)CC2O[Si](C)(C)C(C)(C)C)c(=O)n(CC(=O)OCc2ccccc2)c1=O` (stereo not drawn) are 21.6 µM and greater than 2 µM.
The corresponding values for `Cc1cn([C@@H]2O[C@H](CO[Si](C)(C)C(C)(C)C)[C@@H](O[Si](C)(C)C(C)(C)C)[C@H]2O[Si](C)(C)C(C)(C)C)c(=O)n(CC(=O)OCc2ccccc2)c1=O` are 102 µM and greater than 50 µM.
